For assay [1], the target named is Transient receptor potential cation channel subfamily V member 4 (Homo sapiens, UniProt Q9HBA0). As to the kind of experiment: Antagonist activity at human TRPV4.
Assay [2] is described as follows: Inhibition of TNP-ADP binding to SERCA (unknown origin) by UV dual-wavelength spectrophotometer. The arrangement: species or system Homo sapiens.

Chain of Transient receptor potential cation channel subfamily V member 4 (Q9HBA0 whole entry): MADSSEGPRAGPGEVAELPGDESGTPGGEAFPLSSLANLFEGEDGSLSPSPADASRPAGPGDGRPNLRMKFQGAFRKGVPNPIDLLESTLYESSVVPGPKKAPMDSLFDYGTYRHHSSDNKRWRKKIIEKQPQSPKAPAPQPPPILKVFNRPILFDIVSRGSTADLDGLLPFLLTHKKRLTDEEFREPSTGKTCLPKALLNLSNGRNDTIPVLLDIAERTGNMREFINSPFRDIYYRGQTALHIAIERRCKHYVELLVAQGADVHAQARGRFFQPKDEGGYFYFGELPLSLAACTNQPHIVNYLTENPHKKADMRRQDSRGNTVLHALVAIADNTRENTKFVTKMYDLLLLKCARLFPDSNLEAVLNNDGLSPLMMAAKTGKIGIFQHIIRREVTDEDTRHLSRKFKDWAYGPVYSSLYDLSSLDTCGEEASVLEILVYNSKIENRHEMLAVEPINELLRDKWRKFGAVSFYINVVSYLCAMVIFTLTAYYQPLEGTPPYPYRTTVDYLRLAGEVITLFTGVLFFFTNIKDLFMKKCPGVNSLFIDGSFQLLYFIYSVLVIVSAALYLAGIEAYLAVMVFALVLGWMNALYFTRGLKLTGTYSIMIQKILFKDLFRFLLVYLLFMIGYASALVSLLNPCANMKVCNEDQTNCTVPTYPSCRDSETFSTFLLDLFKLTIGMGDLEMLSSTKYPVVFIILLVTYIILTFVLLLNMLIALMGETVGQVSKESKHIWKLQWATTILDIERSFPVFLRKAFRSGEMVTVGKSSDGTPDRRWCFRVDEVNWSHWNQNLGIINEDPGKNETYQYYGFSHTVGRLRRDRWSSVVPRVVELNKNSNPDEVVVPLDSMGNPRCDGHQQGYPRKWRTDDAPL

As to `Cc1c(C(=O)Nc2cccc(C(F)(F)F)c2)cc(-c2ccccc2)n1CCCN1CCOCC1`, half-maximal inhibition in assay [1] (IC50) required 18 nM.

Consider `CC(C)(O)[C@H]1O[C@H]2CC[C@@]3(C)[C@@](O)(CC[C@H]4Cc5c([nH]c6ccccc56)[C@@]43C)C2=CC1=O` [PAXILLINE], for which, in assay [2], the IC50 (in general, the concentration that gives 50% inhibition) is 5000 nM.

(Values after ChEMBL document CHEMBL4725288, “Modulation of TRPV4 and BKCa for treatment of brain diseases” (Bioorg Med Chem, 2020).)
